Data published in patent US20200268753A1, “PERK AND IRE-1A INHIBITORS AGAINST NEURODEVELOPMENTAL DISORDERS” (priority 2017, published 2020).

Assays:
[1] = system: UPR effectors (PERK-ATF4 arm, IRE-1/Xbp1); test: qRT-PCR of UPR effector expression levels in ZIKV-infected embryonic mouse brains; format: in vivo
Excerpt: (§1) To test the efficacy of Salubrinal and ISRIB (PERK inhibitors) in decreasing the expression levels of UPR effectors after ZIKV infection we intracerebroventricularly injected ZIKV+Salubrinal (or ISRIB) in E12.5 mouse cortices and collected brains at E18.5. These samples were stored in Trizol (Invitrogen) and RNA was extracted according to manufacturer instructions. RNA was then retro-transcribed and cDNA was used to perform qRT-PCR to quantify ZIKV and UPR effectors levels in each sample. […] The expression levels of several PERK pathway effectors were analyzed: mATF4 (FIG. 6B), mATF5 (FIG. 6C), mCHAC1 (FIG. 6D). […] (Kruskal-Wallis test, *p<0.05, ** p<0.005).
(§2) To test the efficacy of Resveratrol (IRE1a inhibitor) in decreasing the expression levels of UPR effectors after ZIKV infection we intracerebroventricularly injected ZIKV+Resveratrol in E12.5 mouse cortices and collected brains at E18.5. These samples were stored in Trizol (Invitrogen) and RNA was extracted according to manufacturer instructions. RNA was then retro-transcribed and cDNA was used to perform qRT-PCR to quantify ZIKV and UPR effectors levels in each sample. […] The expression levels of several PERK pathway effectors were analyzed: mATF4 (FIG. 7B), mATF3 (FIG. 7C), mXbp1 spliced/unspliced and mXbp1 tot (FIG. 7D), mChop (FIG. 7E).
Total RNA was obtained from micro-dissected embryonic mouse brains, and neuronal progenitors seeded in 6 well-plate culture dishes after application of Trizol according to the manufacturer's protocol (Ambion-Life Technologies, 15596018).
The quantity and quality of RNA were assessed by NanoDrop 1000 (Nano-Drop Technologies) before cDNA synthesis by SuperScript III reverse transcriptase (Invitrogen), as used according to the manufacturer's instructions. The resulting cDNA was used for quantitative PCR, using Faststart Universal SYBR Green Master (Roche) in an Applied Biosystem 7900HT Fast Real-Time PCR detection system (Applied Biosystems, Foster city, USA). The following genes of interest (GOI) were normalized to the reference genes β-actin, Glyceraldehyde-3-Phosphate dehydrogenase (GAPDH), hypoxanthine phosphoribosyltransferase 1 (HPRT1), and 36b4 ribosomal protein (36b4). Tested genes were GAPDH, HPRT1, 36B4, ACTIN, ZIKA, Atf4, Atf3, Atf5, Chac1, Chop, Sesn2, Tbr2, Neurod6, Tubb3, hPDI, Slc7a3, MX1, TLR3, HRD1, OCT4, NESTIN, PAX6, SOX1 and mPDI.

[2] = system: ZIKV; test: ZIKV-induced microcephaly and apoptosis after intracerebroventricular injection in mouse embryos (E12.5, analysed E18.5); format: in vivo; conditions: for ZIKV-induced microcephaly / microcephalic phenotype: injected with ZIKV ICV at E12.5, E18.5 brains, vs vehicle
[3] = system: ZIKV; test: qRT-PCR quantification of ZIKV copies in ICV-injected embryonic mouse brains; format: in vivo; conditions: for number of ZIKV copies: ICV co-injection with ZIKV at E12.5, brains at E18.5, vs ZIKV+DMSO, Kruskal-Wallis test
Excerpt: as §1, §2
The number of Zika particles in the samples analyzed by qRT-PCR (see above) was calculated as previously described (Lanciotti et al, 2008). Briefly, a standard curve was created by performing serial dilutions of a plasmid containing 76-bp long sequence from the Zika genome (from nt 1,086 to 1,162; GCF_000882815.3, as indicated in Nature Neurosciences (2018) Gladwyn et al.) and querying these dilutions by qRT-PCR analysis.
This standard curve allows the conversion of Cp of samples queried for Zika virus (as described above) into N^o of Zika copies/a L. We used the following formula to link this quantification to the amount of RNA retrotranscribed for the analysis of each sample: […]
Finally, the N^o of copies/μg RNA was divided for the relative concentration of each sample analyzed by qRT-PCR (since for each analyzed gene in this study we performed a relative quantification compared to the controls of the same experiment). The relative concentration of each sample is automatically calculated by the LightCycler480 and its accompanying software.

[4] = system: ZIKV; test: Neurogenic balance after intracerebroventricular ZIKV injection and in utero GFP electroporation of mouse embryos; format: in vivo; conditions: co-administered with ZIKV ICV at E12.5, second injection at electroporation; E14.5; vs Mock-DMSO and Mock-PERKi
Protocol: To test whether the deregulation of UPR induced by ZIKV-infection results in the impairment of this neurogenic balance, we performed ICV injection of ZIKV in E12.5 mouse brains, followed by in utero electroporation of GFP-expressing plasmids one day later to fate-map APs at E14.5 (APs, immature IPs and IPs, neurons) (FIGS. 3A-B). The phenotype of the “direct progeny” of targeted APs was then assessed by immunohistochemistry (FIGS. 3B-D). In order to characterize the fate of GFP+ cells, we subdivided them into APs (Sox2+, Tbr2− or Tbr2−, Tbr1−), immature IPs (Sox2+, Tbr2+ or Tbr2+, Tbr1−), IPs (Sox2−, Tbr2+ or Tbr2+, Tbr1+), or neurons (Sox2−, Tbr2− or Tbr2−, Tbr1+).
To assess if ZIKV directly impacts the neurogenic balance through UPR deregulation in GFP labeled APs, we co-injected GSK2656157 (a PERK inhibitor, named PERKi) with ZIKV into the lateral ventricles of E12.5 embryos and repeated a second PERKi injection at the time of electroporation.
Embryonic (E) 14.5, E16.5 and E18.5 mouse brains were dissected in 0.1M phosphate-buffered saline pH7.4 (PBS), and were fixed in 4% paraformaldehyde (PFA in PBS) for one hour at room temperature, whereas human neural stem cells (hNSCs) were fixed in 4% PFA at 4° C. for 10 minutes. […]

[5] = system: ZIKV; test: Intraplacental (IPL) ZIKV injection in pregnant NMRI mice, cortical defects at E18.5; format: in vivo, mouse; conditions: intraplacental ZIKV at E12.5, co-injection
[6] = high doses, ICV co-injection with ZIKV at E12.5, brains at E18.5, vs ZIKV+DMSO
[7] = ZIKV ICV at E12.5, E18.5, compared to vehicle treatment
[8] = single injection of 50M at time of infection (E12.5), E18.5

Cc1cc(=O)oc2c(C=O)c(O)ccc12 [4μ8C]
activation of the PERK-ATF4 UPR arm ([1]; ZIKV-infected mouse brains): prevented activation | ZIKV-induced microcephaly / microcephalic phenotype [2]: rescued the microcephalic phenotype

O=C(COc1ccc(Cl)cc1)NC1CCC(NC(=O)COc2ccc(Cl)cc2)CC1 (centres unmarked) [ISRIB]
mATF4 expression level [1, 6]: marked decrease | mATF5 expression level [1, 6]: marked decrease | mCHAC1 expression level [1, 6]: marked decrease | number of ZIKV copies [3]: unaffected compared to controls

Cc1cccc(CC(=O)N2CCc3c2ccc(-c2cn(C)c4ncnc(N)c24)c3F)n1 [PERKi]
imbalance between direct and indirect neurogenesis (proportions of APs, newborn IPs, IPs and neurons) [4]: remarkably corrected the imbalance between direct and indirect neurogenesis | ZIKV particles ([3]; ZIKV-infected mouse brains treated with PERKi): not associated with a reduction | brain weight [2, 7]: significant improvement | cortical dimensions (brain width, length) [2, 7]: significant improvement | numbers of neurons sitting in different cortical layers [2, 7]: significant improvement | ZIKV-induced microcephaly / microcephalic phenotype [2]: reduced ZIKV-induced microcephaly | ER stress [2, 8]: decreased | apoptosis (ac-caspase 3) [2, 8]: decreased | ZIKV-induced cortical defects (cortical thickness, neuronal apoptosis, cytoarchitecture) [5]: rescued

Oc1ccc(C=Cc2cc(O)cc(O)c2)cc1 [Resveratrol]
mATF3 expression level [1, 6]: marked decrease | mATF4 expression level [1, 6]: marked decrease | mChop expression level [1, 6]: marked decrease | number of ZIKV copies [3]: unaffected compared to controls

O=C(/C=C/c1ccccc1)NC(NC(=S)Nc1cccc2cccnc12)C(Cl)(Cl)Cl (centres unmarked) [Salubrinal]
mATF4 expression level [1, 6]: marked decrease | mATF5 expression level [1, 6]: marked decrease | mCHAC1 expression level [1, 6]: marked decrease | number of ZIKV copies [3]: unaffected compared to controls
